Laboratory results: PMC12396409, “Screening and hit evaluation of a microbial metabolite library against the pathogenic Plasmodium falciparum and Toxoplasma gondii parasites” (International Journal for Parasitology: Drugs and Drug …, 2025)
Where two headings read alike, the source gives them in different places.

Legend:
[1] = test system: P. falciparum 3D7 parasites; test: P. falciparum growth inhibition assay, 1-cycle (72 h treatment), SYBR DNA staining (library screen at 2 μg/mL and dose-response); format: cell-based, Plasmodium falciparum; conditions: for activity at 2 µg/mL: Plasmodium falciparum, 3D7
[2] = test system: P. falciparum 3D7 parasites; test: P. falciparum growth inhibition assay, 2-cycle (120 h treatment), delayed-death screen and dose-response; format: cell-based, Plasmodium falciparum; conditions: for activity at 2 µg/mL: Plasmodium falciparum, 3D7
[3] = test system: T. gondii RH strain (RH-Tub-eYFP) tachyzoites; test: microbe, parasite or virus in culture; format: cell-based, Toxoplasma gondii; conditions: 72 h; for percent parasite growth at 2 µg/mL: Toxoplasma gondii
[4] = P. falciparum 3D7, 72 h, library screen at 2 μg/mL, % growth, replicate 1
[5] = P. falciparum 3D7, 72 h, library screen at 2 μg/mL, % growth, replicate 2
[6] = P. falciparum 3D7, 120 h, library screen at 2 μg/mL, % growth, replicate 1
[7] = P. falciparum 3D7, 120 h, library screen at 2 μg/mL, % growth, replicate 2
[8] = T. gondii RH, library screen at 2 μg/mL, % growth, replicate 1
[9] = T. gondii RH, library screen at 2 μg/mL, % growth, replicate 2
[10] = P. falciparum, 72 h, screen at 2 μg/mL, replicate 1
[11] = P. falciparum, 72 h, screen at 2 μg/mL, replicate 2
[12] = P. falciparum, 120 h, screen at 2 μg/mL, replicate 1
[13] = P. falciparum, 120 h, screen at 2 μg/mL, replicate 2
[14] = T. gondii, screen at 2 μg/mL, replicate 1
[15] = T. gondii, screen at 2 μg/mL, replicate 2
[16] = library screen at 2 μg/mL, 72 h, % growth, replicate 1, read-out: Pf_72h_%Growth_Rep1
[17] = library screen at 2 μg/mL, 72 h, % growth, replicate 2, read-out: Pf_72h_%Growth_Rep2
[18] = library screen at 2 μg/mL, 120 h, % growth, replicate 1, read-out: Pf_120h_%Growth_Rep1
[19] = library screen at 2 μg/mL, 120 h, % growth, replicate 2, read-out: Pf_120h_%Growth_Rep2
[20] = library screen at 2 μg/mL, % growth, replicate 1, read-out: Tg_72h_%Growth_Rep1
[21] = library screen at 2 μg/mL, % growth, replicate 2, read-out: Tg_72h_%Growth_Rep2

**Q.** For CC[C@H]1OC(=O)[C@H](C)[C@@H](O[C@H]2C[C@@](C)(OC)[C@@H](O)[C@H](C)O2)[C@H](C)[C@@H](O[C@@H]2O[C@H](C)C[C@H]([N+](C)(C)[O-])[C@H]2O)[C@](C)(O)C[C@@H](C)C(=O)[C@H](C)[C@@H](O)[C@]1(C)O [Erythromycin A N-oxide], which Pf_72h_%Growth_Rep1 ([1]; library screen at 2 μg/mL, 72 h, % growth, replicate 1) is on record?
**A.** The Pf_72h_%Growth_Rep1 was 82.02%.

**Q.** What about the Pf_72h_%Growth_Rep2 ([1]; library screen at 2 μg/mL, 72 h, % growth, replicate 2) of the same compound?
**A.** Its Pf_72h_%Growth_Rep2 is 85.53%.

**Q.** And the Pf_120h_%Growth_Rep1 ([2]; library screen at 2 μg/mL, 120 h, % growth, replicate 1)?
**A.** Its Pf_120h_%Growth_Rep1 is 82.07%.

**Q.** What about the Pf_120h_%Growth_Rep2 ([2]; library screen at 2 μg/mL, 120 h, % growth, replicate 2) of the same compound?
**A.** Its Pf_120h_%Growth_Rep2 is 80.30%.

**Q.** And the Tg_72h_%Growth_Rep1 ([3]; library screen at 2 μg/mL, % growth, replicate 1)?
**A.** The Tg_72h_%Growth_Rep1 was 107.95%.

**Q.** And the Tg_72h_%Growth_Rep2 ([3]; library screen at 2 μg/mL, % growth, replicate 2)?
**A.** Its Tg_72h_%Growth_Rep2 is 98.15%.

**Q.** CN1C(=O)[C@]23CC4=CC=C[C@H](O)[C@H]4N2C(=O)[C@@]1(CO)SS3 [BIA-G1260] was tested. Which Pf_72h_%Growth_Rep1 [1, 4] did it give?
**A.** Its Pf_72h_%Growth_Rep1 is 14.96%.

**Q.** And the Pf_72h_%Growth_Rep2 [1, 5]?
**A.** The Pf_72h_%Growth_Rep2 was 8.82%.

**Q.** What about the Pf_120h_%Growth_Rep1 [2, 6] of the same compound?
**A.** The Pf_120h_%Growth_Rep1 was 35.56%.

**Q.** What about the Pf_120h_%Growth_Rep2 [2, 7] of the same compound?
**A.** Its Pf_120h_%Growth_Rep2 is 25.95%.

**Q.** What about the Tg_72h_%Growth_Rep1 [3, 8] of the same compound?
**A.** Its Tg_72h_%Growth_Rep1 is 1.56%.

**Q.** And the Tg_72h_%Growth_Rep2 [3, 9]?
**A.** The Tg_72h_%Growth_Rep2 was 0.82%.

**Q.** Which Pf_72h_%Growth_Rep1 [1, 10] does the source give for C/C=C/C[C@@H](C)[C@@H](O)[C@H]1C(=O)N[C@@H](CC)C(=O)N(C)CC(=O)N(C)[C@@H](CC(C)C)C(=O)N[C@@H](C(C)C)C(=O)N(C)[C@@H](CC(C)C)C(=O)N[C@@H](C)C(=O)N[C@H](C)C(=O)N(C)[C@@H](CC(C)C)C(=O)N(C)[C@@H](CC(C)C)C(=O)N(C)[C@H](C(C)C)C(=O)N1C [Cyclosporin H] here?
**A.** The Pf_72h_%Growth_Rep1 was 6.54%.

**Q.** And the Pf_72h_%Growth_Rep2 [1, 11]?
**A.** The Pf_72h_%Growth_Rep2 was 2.27%.

**Q.** What about the Pf_120h_%Growth_Rep1 [2, 12] of the same compound?
**A.** Its Pf_120h_%Growth_Rep1 is 5.94%.

**Q.** And the Pf_120h_%Growth_Rep2 [2, 13]?
**A.** The Pf_120h_%Growth_Rep2 was 7.89%.

**Q.** And the Tg_72h_%Growth_Rep1 [3, 14]?
**A.** Its Tg_72h_%Growth_Rep1 is 148.50%.

**Q.** With CC[C@H]1CC2CN3CCc4c([nH]c5ccc(OC)cc45)[C@](C(=O)OC)(C2)[C@H]13 (stereo in doubt) [Voacangine] as the compound, how does the activity at 2 µg/mL ([1]; P. falciparum, 72 h, screen at 2 μg/mL, replicate 1, read-out: Pf_72h_%Growth_Rep1) read?
**A.** Its activity at 2 µg/mL is 86.5%.

**Q.** And the activity at 2 µg/mL ([1]; P. falciparum, 72 h, screen at 2 μg/mL, replicate 2, read-out: Pf_72h_%Growth_Rep2)?
**A.** Its activity at 2 µg/mL is 89.9%.

**Q.** What about the activity at 2 µg/mL ([2]; P. falciparum, 120 h, screen at 2 μg/mL, replicate 1, read-out: Pf_120h_%Growth_Rep1) of the same compound?
**A.** The activity at 2 µg/mL was 164%.

**Q.** What about the activity at 2 µg/mL ([2]; P. falciparum, 120 h, screen at 2 μg/mL, replicate 2, read-out: Pf_120h_%Growth_Rep2) of the same compound?
**A.** The activity at 2 µg/mL was 91%.

**Q.** And the percent parasite growth at 2 µg/mL ([3]; T. gondii, screen at 2 μg/mL, replicate 1, read-out: Tg_72h_%Growth_Rep1)?
**A.** Its percent parasite growth at 2 µg/mL is 89.9%.

**Q.** And the percent parasite growth at 2 µg/mL ([3]; T. gondii, screen at 2 μg/mL, replicate 2, read-out: Tg_72h_%Growth_Rep2)?
**A.** The percent parasite growth at 2 µg/mL was 96.7%.

**Q.** Which “activity in the screen against P. falciparum” value ([1]; 2 μg/mL, 72 h, active = ≥80 % growth inhibition) does the source give for COc1c(C)c(OC(=O)c2c(C)c(C)c(OC(=O)c3c(C)cc(O)c(C)c3O)c(C)c2OC)c(C)c(C)c1C(=O)O [Thielavin B] here?
**A.** Its value is “active”.

**Q.** And the Pf_72h_%Growth_Rep1 [1, 10]?
**A.** Its Pf_72h_%Growth_Rep1 is 13.97%.

**Q.** What about the Pf_72h_%Growth_Rep2 [1, 11] of the same compound?
**A.** Its Pf_72h_%Growth_Rep2 is 7.85%.

**Q.** And the Pf_120h_%Growth_Rep1 [2, 12]?
**A.** Its Pf_120h_%Growth_Rep1 is 38.21%.

**Q.** What about the Pf_120h_%Growth_Rep2 [2, 13] of the same compound?
**A.** Its Pf_120h_%Growth_Rep2 is 6.65%.

**Q.** And the Tg_72h_%Growth_Rep1 [3, 14]?
**A.** Its Tg_72h_%Growth_Rep1 is 86.62%.

**Q.** What about the Tg_72h_%Growth_Rep2 [3, 15] of the same compound?
**A.** Its Tg_72h_%Growth_Rep2 is 101.22%.

**Q.** With COc1ccc(Cl)c(C)c1C(=O)O[C@@H]1C[C@H](O[C@H]2[C@H](O)C[C@H](O[C@H]3CCC[C@@H]4[C@@H]3C=C[C@H]3CCCC/C=C/[C@@H]5C=C(C(=O)O)[C@H](C)C[C@]56OC(=O)C(=C6O)OC(=O)[C@@]43C)O[C@@H]2C)O[C@H](C)[C@H]1O [Chlorothricin] as the compound, how does the Pf_72h_%Growth_Rep1 [1, 10] read?
**A.** Its Pf_72h_%Growth_Rep1 is 106.01%.

**Q.** And the Pf_72h_%Growth_Rep2 [1, 11]?
**A.** The Pf_72h_%Growth_Rep2 was 86.61%.

**Q.** And the Pf_120h_%Growth_Rep1 [2, 12]?
**A.** Its Pf_120h_%Growth_Rep1 is 151.59%.

**Q.** What about the Pf_120h_%Growth_Rep2 [2, 13] of the same compound?
**A.** The Pf_120h_%Growth_Rep2 was 96.98%.

**Q.** And the Tg_72h_%Growth_Rep1 [3, 14]?
**A.** The Tg_72h_%Growth_Rep1 was 75.08%.

**Q.** What about the Tg_72h_%Growth_Rep2 [3, 15] of the same compound?
**A.** The Tg_72h_%Growth_Rep2 was 94.25%.

**Q.** With Cc1cc(O)c2c(c1)C(=O)c1cc(O)cc(O)c1C2=O [Emodin] as the compound, how does the activity at 2 µg/mL [1, 16] read?
**A.** Its activity at 2 µg/mL is 87.3%.

**Q.** What about the activity at 2 µg/mL [1, 17] of the same compound?
**A.** Its activity at 2 µg/mL is 86.6%.

**Q.** What about the activity at 2 µg/mL [2, 18] of the same compound?
**A.** The activity at 2 µg/mL was 85.9%.

**Q.** What about the activity at 2 µg/mL [2, 19] of the same compound?
**A.** Its activity at 2 µg/mL is 114%.

**Q.** What about the percent parasite growth at 2 µg/mL [3, 20] of the same compound?
**A.** The percent parasite growth at 2 µg/mL was 116%.

**Q.** And the percent parasite growth at 2 µg/mL [3, 21]?
**A.** The percent parasite growth at 2 µg/mL was 87.4%.

**Q.** CO/C1=C\C(C)=C\[C@@H](C)[C@@H](O)[C@@H](C)C/C(C)=C/C=C/[C@H](OC)[C@@H]([C@@H](C)[C@@H](O)[C@H](C)[C@@]2(O)C[C@@H](O)[C@H](C)[C@@H](C(C)C)O2)OC1=O [Bafilomycin A1] was tested. Which activity at 2 µg/mL [1, 16] did it give?
**A.** The activity at 2 µg/mL was 3.38%.

**Q.** And the activity at 2 µg/mL [1, 17]?
**A.** The activity at 2 µg/mL was 2.45%.

**Q.** What about the activity at 2 µg/mL [2, 18] of the same compound?
**A.** Its activity at 2 µg/mL is 5.49%.

**Q.** And the activity at 2 µg/mL [2, 19]?
**A.** Its activity at 2 µg/mL is 9.47%.

**Q.** What about the percent parasite growth at 2 µg/mL [3, 20] of the same compound?
**A.** Its percent parasite growth at 2 µg/mL is -1.58%.

**Q.** What about the percent parasite growth at 2 µg/mL [3, 21] of the same compound?
**A.** Its percent parasite growth at 2 µg/mL is 0.71%.

**Q.** How did the Pf_72h_%Growth_Rep1 [1, 4] turn out when COC(=O)C1(O)CC2OC1(C)n1c3ccccc3c3c4c(c5c6ccccc6n2c5c31)CNC4=O (stereo not drawn) [BIA-K1225] was run?
**A.** Its Pf_72h_%Growth_Rep1 is 4.93%.

**Q.** What about the Pf_72h_%Growth_Rep2 [1, 5] of the same compound?
**A.** Its Pf_72h_%Growth_Rep2 is 0.48%.

**Q.** And the Pf_120h_%Growth_Rep1 [2, 6]?
**A.** Its Pf_120h_%Growth_Rep1 is 29.46%.

**Q.** And the Pf_120h_%Growth_Rep2 [2, 7]?
**A.** Its Pf_120h_%Growth_Rep2 is 12.07%.

**Q.** And the Tg_72h_%Growth_Rep1 [3, 8]?
**A.** Its Tg_72h_%Growth_Rep1 is -1.01%.

**Q.** What about the Tg_72h_%Growth_Rep2 [3, 9] of the same compound?
**A.** Its Tg_72h_%Growth_Rep2 is 0.85%.
